Reference: US11497212B2, “Substituted thiophenyl uracils, salts thereof and the use thereof as herbicidal agents” (Syngenta Crop Protection AG, priority 2017, dated 2022)

Assays:
Format in all cases: in vivo
[1] = tested on: Abutilon theophrasti; test: Herbicidal action post-emergence (greenhouse pot trial); settings: application rate 20 g/ha, scored visually after about 3 weeks vs untreated controls
Procedure, shortened: (§1)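 Percent herbicidal efficacy, assessed by eye about 3 weeks after spraying, compares treated with untreated plants. Treatment is a post-emergence spray at the one-leaf stage, using a WP or EC preparation plus 0.5% additive in 600 L/ha of water, at 80 g/ha or lower.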

[2] = tested on: Alopecurus myosuroides; test: as above; settings: application rate 20 g/ha, scored visually after about 3 weeks vs untreated controls
Procedure, shortened: as §1

[3] = tested on: Amaranthus retroflexus; test: as above; settings: application rate 20 g/ha, scored visually after about 3 weeks vs untreated controls
Procedure, shortened: as §1

[4] = tested on: Digitaria sanguinalis; test: as above; settings: application rate 20 g/ha
Procedure, shortened: as §1

[5] = tested on: Echinochloa crus-galli; test: as above; settings: application rate 20 g/ha, scored visually after about 3 weeks vs untreated controls
Procedure, shortened: as §1

[6] = tested on: Hordeum murinum; test: as above; settings: application rate 20 g/ha, scored visually after about 3 weeks vs untreated controls
Procedure, shortened: as §1

[7] = tested on: Matricaria inodora; test: as above; settings: application rate 20 g/ha, scored visually after about 3 weeks vs untreated controls
Procedure, shortened: as §1

[8] = tested on: Pharbitis purpurea; test: as above; settings: application rate 20 g/ha
Procedure, shortened: as §1

[9] = tested on: Polygonum convolvulus; test: as above; settings: application rate 20 g/ha, scored visually after about 3 weeks vs untreated controls
Procedure, shortened: as §1

[10] = tested on: Setaria viridis; test: as above; settings: application rate 20 g/ha, scored visually after about 3 weeks vs untreated controls
Procedure, shortened: as §1

[11] = tested on: Stellaria media; test: as above; settings: application rate 20 g/ha, scored visually after about 3 weeks vs untreated controls
Procedure, shortened: as §1

[12] = tested on: Veronica persica; test: as above; settings: application rate 20 g/ha
Procedure, shortened: as §1

[13] = tested on: Viola tricolor; test: as above; settings: application rate 20 g/ha
Procedure, shortened: as §1

[14] = tested on: Triticum aestivum; test: Crop compatibility post-emergence (greenhouse pot trial)
Procedure, shortened: (§2)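 Visual % rating about 3 weeks post-treatment against untreated plants (100% dead, 0% unaffected). Post-emergence spray of aqueous WP/EC preparations with 0.5% additive at 600 L/ha water, applied at one-leaf stage to greenhouse pot-grown crops in sandy loam.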

[15] = tested on: Glycine max; test: as above; settings: application rate 5 g/ha
Procedure, shortened: as §2

[16] = tested on: Oryza sativa; test: as above; settings: application rate 20 g/ha
Procedure, shortened: as §2

[17] = tested on: Zea mays; test: as above
Procedure, shortened: as §2

[18] = tested on: Abutilon theophrasti; test: Herbicidal action pre-emergence (greenhouse pot trial); settings: application rate 80 g/ha, scored after about 3 weeks
Excerpt: (§3) Seeds of mono- and dicotyledonous weeds and crop plants were laid out in plastic or organic plant pots and covered with soil. The compounds of the invention formulated in the form of wettable powders (WP) or emulsion concentrates (EC) were then applied to the surface of the covering soil as an aqueous suspension or emulsion with addition of 0.5% additive at a water application rate equivalent to 600 L/ha. After the treatment, the pots were placed in a greenhouse and kept under good growth conditions for the test plants. After about 3 weeks, the efficacy of the preparations was scored visually as a percentage by comparison with untreated controls. For example, 100% efficacy=plants have died, 0% efficacy=like control plants. Tables B1 to B16 below show the efficacies of selected compounds of the general formula (I) according to tables I.1 to I.60 on various harmful plants and an application rate corresponding to 320 g/ha or lower that were obtained by the aforementioned trial method.

[19] = tested on: Amaranthus retroflexus; test: as above; settings: application rate 80 g/ha, scored after about 3 weeks
Excerpt: as §3

[20] = tested on: Digitaria sanguinalis; test: as above; settings: application rate 80 g/ha
Excerpt: as §3

[21] = tested on: Matricaria inodora; test: as above; settings: application rate 80 g/ha, scored after about 3 weeks
Excerpt: as §3

[22] = tested on: Pharbitis purpurea; test: as above; settings: application rate 80 g/ha
Excerpt: as §3

[23] = tested on: Setaria viridis; test: as above; settings: application rate 80 g/ha, scored after about 3 weeks
Excerpt: as §3

[24] = tested on: Stellaria media; test: as above; settings: application rate 80 g/ha, scored after about 3 weeks
Excerpt: as §3

[25] = tested on: Veronica persica; test: as above; settings: application rate 80 g/ha
Excerpt: as §3

[26] = tested on: Viola tricolor; test: as above; settings: application rate 80 g/ha, scored after about 3 weeks
Excerpt: as §3

[27] = tested on: Zea mays; test: Crop compatibility pre-emergence (greenhouse pot trial); settings: application rate 80 g/ha, effect vs untreated controls
Excerpt: as §3, with “plants.” for “plants. Tables B1 to B16 below show the efficacies of selected compounds of the general formula (I) according to tables I.1 to I.60 on various harmful plants and an application rate corresponding to 320 g/ha or lower that were obtained by the aforementioned trial method.”
Crop compatibilities were also scored correspondingly.
The effects observed are reported here on selected crop plants by comparison with the untreated controls (values in %).

Structure (SMILES) | Abutilon theophrasti (Efficacy in %) [1] [%] | Alopecurus myosuroides (Efficacy in %) [2] [%] | Amaranthus retroflexus (Efficacy in %) [3] [%] | Digitaria sanguinalis (Efficacy in %) [4] [%] | Echinochloa crus-galli (Efficacy in %) [5] [%] | Hordeum murinum (Efficacy in %) [6] [%] | Matricaria inodora (Efficacy in %) [7] [%] | Pharbitis purpurea (Efficacy in %) [8] [%] | Polygonum convolvulus (Efficacy in %) [9] [%] | Setaria viridis (Efficacy in %) [10] [%] | Stellaria media (Efficacy in %) [11] [%] | Veronica persica (Efficacy in %) [12] [%] | Viola tricolor (Efficacy in %) [13] [%] | Glycine max (Efficacy in %) [15] [%] | Oryza sativa (Efficacy in %) [16] [%] | Triticum aestivum (Efficacy in %) ([14]; application rate 5 g/ha) [%] | other results
CC(C)C(Sc1cc(-n2c(=O)cc(C(F)(F)F)n(C)c2=O)c(F)cc1Cl)C(=O)OCC1CCCO1 (stereo not drawn) [I.6-71] | 100 | 80 | 100 | 100 | 90 | 80 | 100 | 100 | 100 | 100 | 100 | 100 | 100 |  |  |  | Triticum aestivum (Efficacy in %) ([14]; application rate 20 g/ha): 20%
CC(C)CC(Sc1cc(-n2c(=O)cc(C(F)(F)F)n(C)c2=O)c(F)cc1Cl)C(=O)NCC1CCCO1 (stereo not drawn) [I.4-221] | 100 |  | 100 | 100 | 80 | 80 | 100 | 100 | 100 | 100 | 80 | 100 | 100 | 20 |  |  | 
CCC(Sc1cc(-n2c(=O)c(C)c(C(F)(F)F)n(C)c2=O)c(F)cc1Cl)C(=O)OCC1CCCCO1 (stereo not drawn) [I.12-91] | 100 | 80 | 100 |  | 100 |  | 80 | 100 | 80 | 80 | 100 | 100 | 100 | 0 | 0 | 0 | Zea mays (Efficacy in %) ([17]; application rate 5 g/ha): 0%
CC(Sc1cc(-n2c(=O)cc(C(F)(F)F)n(C)c2=O)c(F)cc1Cl)C(=O)OCC1CCSC1 (stereo not drawn) [I.1-82] | 100 |  | 100 | 100 | 100 |  | 100 | 100 | 100 | 80 | 80 | 100 | 100 |  | 10 | 0 | Zea mays (Efficacy in %) ([17]; application rate 20 g/ha): 20%; Abutilon theophrasti (Efficacy in %) [18]: 100%; Amaranthus retroflexus (Efficacy in %) [19]: 100%; Digitaria sanguinalis (Efficacy in %) [20]: 80%; Matricaria inodora (Efficacy in %) [21]: 100%; Pharbitis purpurea (Efficacy in %) [22]: 100%; Setaria viridis (Efficacy in %) [23]: 100%; Stellaria media (Efficacy in %) [24]: 100%; Veronica persica (Efficacy in %) [25]: 100%; Viola tricolor (Efficacy in %) [26]: 100%; Zea mays (Efficacy in %) [27]: 0%
